Experimental data published in patent publication US6545002B1 (University of Virginia Patent Foundation, priority 1999, dated 2003).
Like-named read-outs stand apart in the source and are kept apart here.

Legend:
[1] = target: T1, recombinant human A1 receptors (hA1) (Homo sapiens, UniProt P30542); experiment: Radioligand binding ([3H]CPX) at recombinant human A1 receptors in HEK-293 cells
T1 sequence (P30542 1-326): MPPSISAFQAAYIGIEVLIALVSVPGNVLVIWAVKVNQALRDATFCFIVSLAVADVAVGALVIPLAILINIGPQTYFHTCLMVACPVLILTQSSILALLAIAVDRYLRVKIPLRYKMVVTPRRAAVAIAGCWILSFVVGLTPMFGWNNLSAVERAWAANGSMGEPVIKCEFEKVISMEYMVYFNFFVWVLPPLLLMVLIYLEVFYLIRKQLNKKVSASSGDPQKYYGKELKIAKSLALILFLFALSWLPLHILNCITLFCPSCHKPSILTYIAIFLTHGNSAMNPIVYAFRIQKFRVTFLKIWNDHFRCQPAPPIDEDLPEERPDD

[2] = target: recombinant human A2A receptors (hA2A) (Homo sapiens, UniProt P29274); experiment: Radioligand binding (125I-ZM241385) at recombinant human A2A receptors in HEK-293 cells
human A3 receptors (hA3) = target: T2, human A3 receptors (hA3) (Homo sapiens, UniProt P0DMS8); experiment: Displacement of [125I]ABA binding at human A3 receptors expressed in HEK-293 cells
T2 construct: expressed in transfected cells; host or cells: HEK-293
T2 sequence (P0DMS8 1-318): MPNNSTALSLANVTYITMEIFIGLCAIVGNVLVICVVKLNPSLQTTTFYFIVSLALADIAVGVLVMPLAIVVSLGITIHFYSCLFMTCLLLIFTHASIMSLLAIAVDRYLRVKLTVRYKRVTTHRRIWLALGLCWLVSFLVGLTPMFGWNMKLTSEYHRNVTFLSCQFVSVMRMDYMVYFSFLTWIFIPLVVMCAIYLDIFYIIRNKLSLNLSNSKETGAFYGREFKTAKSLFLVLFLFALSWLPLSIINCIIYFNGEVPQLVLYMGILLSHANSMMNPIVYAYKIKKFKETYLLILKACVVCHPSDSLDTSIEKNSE

[3] = target: T3, human A2B receptors (hA2B) (Homo sapiens, UniProt P29275); experiment: Radioligand binding ([125I]ABOPX / [3H]ZM241385) at human A2B receptors expressed in HEK-293 cells
T3 construct: expressed in transfected cells; host or cells: HEK-293 (HEK-A2B, G418-selected)
T3 sequence (P29275 1-332): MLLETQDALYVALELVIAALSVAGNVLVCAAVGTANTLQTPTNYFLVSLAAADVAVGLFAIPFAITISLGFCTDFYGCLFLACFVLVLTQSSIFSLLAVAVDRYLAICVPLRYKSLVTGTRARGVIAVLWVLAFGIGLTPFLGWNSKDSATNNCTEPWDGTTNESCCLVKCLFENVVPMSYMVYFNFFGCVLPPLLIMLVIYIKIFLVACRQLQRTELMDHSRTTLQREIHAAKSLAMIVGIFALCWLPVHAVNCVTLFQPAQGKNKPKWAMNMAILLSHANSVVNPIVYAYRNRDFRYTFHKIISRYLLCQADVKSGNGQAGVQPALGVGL

rat A2A receptors (rA2A) = target: T4, rat A2A receptors (rA2A) (Rattus norvegicus, UniProt P30543); experiment: Displacement of [3H]CGS 21680 binding in rat striatal membranes
T4 construct: to A2A receptors from rat striatal membranes was performed as described; from tissue; host or cells: rat striatal membranes
Description: (§1) Bruns, R. F. et al., Naunyn-Schmiedeberg's Arch. […] Binding of [^3H]R-N^6-phenylisopropyladenosine. Schwabe, U. et al., Naunyn-Schmiedeberg's Arch. […] (Dupont NEN, Boston, Mass.) to A2A receptors from rat striatal membranes was performed as described. […] All non-radioactive compounds were initially dissolved in DMSO, and diluted with buffer to the final concentration, where the amount of DMSO never exceeded 2%. Incubations were terminated by rapid filtration over Whatman GF/B filters, using a Brandell cell harvester (Brandell, Gaithersburg, Md.). The tubes were rinsed three times with 3 mL buffer each.
(§2) At least six different concentrations of competitor, spanning 3 orders of magnitude adjusted appropriately for the IC50 of each compound, were used. IC50 values, calculated with the nonlinear regression method implemented in (Graph-Pad Prism, San Diego, Calif.), were converted to apparent Ki values as described. Linden, J., J. Cycl. Nucl.

rat A1 receptors (rA1) = target: T5, rat A1 receptors (rA1) (Rattus norvegicus, UniProt P25099); experiment: Displacement of [3H]R-PIA binding in rat brain (cerebral cortical) membranes
T5 construct: to A1 receptors from rat cerebral cortical membranes; from tissue; host or cells: rat cerebral cortical (brain) membranes
T5 sequence (P25099 1-326): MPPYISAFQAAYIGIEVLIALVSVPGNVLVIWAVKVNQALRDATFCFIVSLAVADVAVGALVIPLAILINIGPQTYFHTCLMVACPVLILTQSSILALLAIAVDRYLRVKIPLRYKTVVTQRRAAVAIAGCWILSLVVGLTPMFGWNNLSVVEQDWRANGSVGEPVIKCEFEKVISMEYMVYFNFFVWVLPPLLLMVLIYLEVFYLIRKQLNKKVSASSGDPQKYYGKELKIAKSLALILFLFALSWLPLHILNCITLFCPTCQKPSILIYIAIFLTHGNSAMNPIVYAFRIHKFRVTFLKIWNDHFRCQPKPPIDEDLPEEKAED
Description: as §1, §2

[4] = read-out: hA1 Ki or IC50, Table 2
[5] = read-out: hA2A Ki or IC50, Table 2
[6] = Table 2, read-out: hA3 Ki or IC50
[7] = Table 2, read-out: hA2B Ki or IC50
[8] = Table 2, read-out: rA2A Ki or IC50
[9] = Table 2, read-out: rA1 Ki or IC50
[10] = read-out: Ki value at human A2B receptors

T4 sequence (P30543 whole entry): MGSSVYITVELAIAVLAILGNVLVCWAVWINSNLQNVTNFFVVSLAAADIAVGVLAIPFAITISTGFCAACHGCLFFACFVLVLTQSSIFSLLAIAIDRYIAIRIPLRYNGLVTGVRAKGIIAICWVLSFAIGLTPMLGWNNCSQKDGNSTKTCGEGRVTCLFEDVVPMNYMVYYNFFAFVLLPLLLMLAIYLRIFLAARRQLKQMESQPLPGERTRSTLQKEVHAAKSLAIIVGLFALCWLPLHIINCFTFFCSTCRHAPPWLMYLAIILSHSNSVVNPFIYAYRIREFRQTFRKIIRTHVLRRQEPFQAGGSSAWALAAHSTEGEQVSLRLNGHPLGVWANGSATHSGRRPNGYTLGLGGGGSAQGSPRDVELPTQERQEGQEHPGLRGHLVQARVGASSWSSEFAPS
Chain of recombinant human A2A receptors (hA2A) (P29274 whole entry): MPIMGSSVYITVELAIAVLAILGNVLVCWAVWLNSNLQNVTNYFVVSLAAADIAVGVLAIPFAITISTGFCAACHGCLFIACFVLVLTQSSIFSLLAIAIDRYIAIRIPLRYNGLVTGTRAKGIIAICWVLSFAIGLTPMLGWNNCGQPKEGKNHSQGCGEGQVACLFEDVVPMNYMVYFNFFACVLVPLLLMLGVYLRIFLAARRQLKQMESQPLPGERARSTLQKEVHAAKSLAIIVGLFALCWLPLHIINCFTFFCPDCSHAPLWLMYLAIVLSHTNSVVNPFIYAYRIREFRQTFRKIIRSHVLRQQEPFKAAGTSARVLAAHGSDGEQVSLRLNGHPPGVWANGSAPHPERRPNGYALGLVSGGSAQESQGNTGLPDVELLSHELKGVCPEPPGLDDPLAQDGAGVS

| Structure (SMILES) | melting point | Ki [1, 4] | Ki [2, 5] | Ki (human A3 receptors (hA3); [6]) | selectivity for human A2B versus human A1 receptors [3] | selectivity for human A2B versus human A2A receptors [3] | selectivity for human A2B versus human A3 receptors [3] | Ki [3, 7] | Ki (rat A2A receptors (rA2A); [8]) | Ki (rat A1 receptors (rA1); [9]) | Ki [3, 10] | other results |
| --- | --- | --- | --- | --- | --- | --- | --- | --- | --- | --- | --- | --- |
| CCCn1c(=O)c2[nH]c(-c3ccc(/C=C/C(=O)NN4C(=O)C(C)=C(C)C4=O)cc3)nc2n(CCC)c1=O [Compound 34, 8-(4-(2-Carboxy-trans-vinyl)phenyl)-1,3-di-(n-propyl)xanthine N′,N′-[(1,2-Dimethyl)maleyl]hydrizide] | 302 to 303 °C |  |  |  |  |  |  |  |  |  |  | Ki ([1]; read-out: hA1 Ki, values marked (h), Table 3): 105 ± 5 nM; Ki ([2]; read-out: hA2A Ki, values marked (h), Table 3): 223 ± 55 nM; Ki (human A3 receptors (hA3); Table 3, read-out: hA3 Ki or IC50): 31 ± 3.1 nM; Ki ([3]; Table 3, read-out: hA2B Ki or IC50): 16.7 ± 3 nM; Ki (rat A2A receptors (rA2A); Table 3, read-out: rA2A Ki or IC50): 406 ± 105 nM; Ki (rat A1 receptors (rA1); Table 3, read-out: rA1 Ki or IC50): 3.94 ± 1.2 nM |
| CCCn1c(=O)c2[nH]c(-c3ccc(OCC(=O)Nc4ccccc4C(C)=O)cc3)nc2n(CCC)c1=O [Compound 18, 8-[4-[((2-Acetylphenyl)carbamoylmethyl)oxy]phenyl]-1,3-di-(n-propyl)xanthine] | 294 °C | 335 ± 64 nM | 431 ± 176 nM | 61.9 ± 3.4 nM | 120 fold | 160 fold | 23 fold | 2.74 ± 1.01 nM | 434 ± 129 nM | 27.9 ± 1.6 nM |  | selectivity for human A2B versus rat A1 receptors [3]: 10 fold; selectivity for human A2B versus rat A2A receptors [3]: 160 fold |
| CCCn1c(=O)c2[nH]c(-c3ccc(OCC(=O)Nc4ccc(I)cc4)cc3)nc2n(CCC)c1=O [Compound 33, 8-[4-[((4-Iodo)phenylcarbamoylmethyl)oxy]phenyl]-1,3-di-(n-propyl)xanthine] | > 310 °C | 293 ± 67 nM | 5140 nM | 1270 nM | 140 fold | 2400 fold | 600 fold |  | 152 ± 47 nM | 15.7 ± 4.2 nM | 2.13 nM |  |
| CCCn1c(=O)c2[nH]c(-c3ccc(OCC(=O)Nc4ccc(Cl)cc4)cc3)nc2n(CCC)c1=O [Compound 31, 8-[4-[((4-Chloro)phenylcarbamoylmethyl)oxy]phenyl]-1,3-di-(n-propyl)xanthine] | 309 °C | 49.7 ± 14.2 nM | 187 ± 38 nM | 1870 nM |  |  |  | 2.47 ± 0.71 nM | 995 ± 550 nM | 6.35 ± 1.47 nM |  |  |
| CCCn1c(=O)c2[nH]c(-c3ccc(OCC(=O)NN4C(=O)C(C)=C(C)C4=O)cc3)nc2n(CCC)c1=O [Compound 47, 8-[4-[(Carboxymethyl)oxy]phenyl]-1,3-di-(n-propyl)xanthine N,N-[(1,2-Dimethyl)maleyl]hydrazide] | > 310 °C |  |  |  | 160 fold | 100 fold | 35 fold |  |  |  | 19 nM | Ki ([1]; read-out: hA1 Ki, values marked (h)^a, Table 4, vs [3H]CPX, HEK-293): 3030 nM; Ki ([2]; read-out: hA2A Ki, values marked (h), Table 1, recombinant human A2A, HEK 293): 1970 nM; Ki (human A3 receptors (hA3); Table 4, footnote a: [125I]ABA, read-out: hA3 Ki (value marked ^a)): 670 ± 154 nM; hA1/hA2B ([3]; Table 1, Ki ratio): 110; hA2A/hA2B ([3]; Table 1, Ki ratio): 74; hA3/hA2B ([3]; Table 1, Ki ratio): 25; Ki ([3]; Table 1, [125I]ABOPX, HEK-293, read-out: hA2B Ki or IC50): 26.6 ± 4 nM; rA1/hA2B ([3]; Table 4, Ki ratio): 0.57; Ki ([3]; Table 4, footnote a: [125I]-ABOPX, read-out: hA2B Ki (value marked ^a) (converted)): 33.8 nM; Ki ([3]; Table 4, unmarked value, first of two binding assays, read-out: hA2B Ki): 19.4 ± 6.2 nM; Ki (rat A2A receptors (rA2A); Table 4, read-out: rA2A Ki): 126 ± 41 nM; Ki (rat A1 receptors (rA1); Table 4, read-out: rA1 Ki): 11.1 ± 2.4 nM |
| CCCn1c(=O)c2[nH]c(-c3ccc(OCC(=O)Nc4ccc(Br)cc4)cc3)nc2n(CCC)c1=O [Compound 32, 8-[4-[((4-Bromo)phenylcarbamoylmethyl)oxy]phenyl]-1,3-di-(n-propyl)xanthine] | > 310 °C | 73.5 ± 23.3 nM | 1640 nM | 2300 nM |  |  |  | 2.35 ± 0.01 nM | 221 ± 36 nM | 7.46 ± 2.66 nM |  |  |
